Source: publication PMC3094853 (Chembiochem : a European journal of chemical biology, 2010)
Like-named read-outs stand apart in the source and are kept apart here.

Experiments:
HER2 TK = HER2 TK (Homo sapiens, UniProt P04626); experiment: ELISA of biotinylated peptide phosphorylation; assay type: biochemical
HER1 TK = HER1 TK (Homo sapiens, UniProt P00533); experiment: ELISA of biotinylated peptide phosphorylation; assay type: biochemical; conditions: 20 µM ATP; 1.5 µM peptide substrate; 5 mM MgCl2; 5 mM MnCl2; HEPES pH 7.5; 23 °C

Row | Compound | IC50 (HER2 TK; 20 µM ATP, 1.5 µM peptide substrate, 5 mM MgCl2, 5 mM MnCl2, HEPES pH 7.5, 23 °C) | IC50 (HER1 TK) | IC50 (HER2 TK)
1 | 4-trifluoromethylcinnamoyl pyrone [2e] | 160 nM | 330 nM | 
2 | COc1cc(/C=C(\C#N)C(N)=O)cc(CSc2nc3ccccc3s2)c1O [AG-825] |  |  | 590 nM
